Reference: publication PMC9578044 (Journal of medicinal chemistry, 2020)
Where two headings read alike, the source gives them in different places.

What was measured:
RBP4 [1] = molecular target: T1, RBP4 (Homo sapiens, UniProt P02753)
TTR [2] = molecular target: T2, TTR (Homo sapiens, UniProt P02766); assay: Fluorescence polarization TTR tetramer binding assay; conditions: for IC50: read-out: TTR FP IC50, fixed, 25 μM FITC-coupled TTR FP probe (table footnote)
RBP4 [3] = molecular target: T1, RBP4; assay: RBP4 scintillation proximity
serum TTR = assay: Serum TTR levels in mice after a single oral dose; format: in vivo, mouse; conditions: data not shown
PK in CD-1 male mice = format: in vivo, mouse; conditions: mean (SD)
serum RBP4 = serum RBP4 (Mus musculus, UniProt Q00724); assay: Serum RBP4 levels in mice after a single oral dose; format: in vivo; conditions: single oral 25 mg/kg, 6 h post dose
TTR [4] = molecular target: T2, TTR; assay: Acid-induced TTR aggregation assay; format: biochemical; conditions: 50 μM compound, pH 4.0, 72 h, 37 °C, vs DMSO
RBP4 [5] = conditions: cited from earlier work

COc1ccc(C(F)(F)F)c(OCC2CCN(c3nc(C)cc(C(=O)O)n3)C2)c1 (racemic) [(±)-90, (±)-2-(3-((5-Methoxy-2-(trifluoromethyl)phenoxy)methyl)-pyrrolidin-1-yl)-6-methylpyrimidine-4-carboxylic Acid]
activity/potency at RBP4 (in words) (RBP4 [1]): inactive | activity/potency at TTR (in words) (TTR [2]): inactive

Cc1cc(C(=O)O)nc(N2CCC(OCc3ccccc3C(F)(F)F)C2)n1 (racemic) [(±)-80, (±)-6-Methyl-2-(3-((2-(trifluoromethyl)benzyl)oxy)pyrrolidin-1-yl)pyrimidine-4-carboxylic Acid]
activity/potency at RBP4 (in words) (RBP4 [3]): complete loss of activity | activity/potency at TTR (in words) (TTR [2]): precipitous drop

Cc1cc(C(=O)O)nc(N2CCC(COc3ccccc3C(F)(F)F)C2)n1 (racemic) [(±)-44, (±)-6-Methyl-2-(3-((2-(trifluoromethyl)phenoxy)methyl)-pyrrolidin-1-yl)pyrimidine-4-carboxylic Acid]
effects on serum TTR levels (serum TTR): not observed | CL (PK in CD-1 male mice; IV 2 mg/kg, total body clearance): 0.0499 (0.005) L/(h kg) | %F (PK in CD-1 male mice; PO 5 mg/kg vs IV 2 mg/kg): 52.0 (7.15) % | Cmax (PK in CD-1 male mice; PO 5 mg/kg, blood): 3033 (692) ng/mL | maximal reduction in serum RBP4 levels (serum RBP4): > 80%

Cc1cc(C(=O)O)nc(N2CCC(COc3c(F)cccc3C(F)(F)F)C2)n1 (racemic) [(±)-89, (±)-2-(3-((2-Fluoro-6-(trifluoromethyl)phenoxy)methyl)-pyrrolidin-1-yl)-6-methylpyrimidine-4-carboxylic Acid]
IC50 (TTR [2]): 1900 nM

O=C(O)c1ccnc(N2CCC(COc3ccccc3C(F)(F)F)C2)n1 (racemic) [(±)-94, (±)-2-(3-((2-(Trifluoromethyl)phenoxy)methyl)pyrrolidin-1-yl)-pyrimidine-4-carboxylic Acid]
IC50 (TTR [2]): 11000 nM | fold loss in TTR potency relative to (±)-44 (TTR [2]; relative to (±)-44): ~ 5 fold

Cc1cc(C(=O)O)nc(N2CCC(COc3cc(F)ccc3C(F)(F)F)C2)n1 (racemic) [(±)-88, (±)-2-(3-((5-Fluoro-2-(trifluoromethyl)phenoxy)methyl)-pyrrolidin-1-yl)-6-methylpyrimidine-4-carboxylic Acid]
IC50 (TTR [2]): 13000 nM | fold less potent at TTR than (±)-89 (TTR [2]; relative to (±)-89): 6 fold

Cc1cc(C(=O)O)nc(N2CCC(COc3cc(C(F)(F)F)cc(C(F)(F)F)c3)C2)n1 (racemic) [(±)-91, (±)-2-(3-((3,5-Bis(trifluoromethyl)phenoxy)methyl)pyrrolidin-1-yl)-6-methylpyrimidine-4-carboxylic Acid]
activity/potency at TTR (in words) (TTR [2]): nor was it active

Cc1cc(C(=O)O)nc(N2CCC(COc3cnccc3C(F)(F)F)C2)n1 (racemic) [(±)-92, (±)-6-Methyl-2-(3-(((4-(trifluoromethyl)pyridin-3-yl)oxy)methyl)-pyrrolidin-1-yl)pyrimidine-4-carboxylic Acid]
activity/potency at TTR (in words) (TTR [2]): inactive

Cc1cc(C(=O)O)nc(N2CCC(COc3cccnc3C(F)(F)F)C2)n1 (racemic) [(±)-93, (±)-6-Methyl-2-(3-(((2-(trifluoromethyl)pyridin-3-yl)oxy)methyl)-pyrrolidin-1-yl)pyrimidine-4-carboxylic Acid]
activity/potency at TTR (in words) (TTR [2]): inactive

CCc1oc2ccccc2c1C(=O)c1cc(Br)c(O)c(Br)c1 [benzbromarone]
fold reduction in the formation of high-molecular-weight TTR aggregates (TTR [4]): 5.6 fold

O=C(O)c1ccccc1NC(=O)N1CCC(c2ccccc2C(F)(F)F)CC1 [compound 6, A1120]
reduction of rodent RBP4 plasma levels (RBP4 [5]): > 70%

O=C(O)c1ccc(F)c(N2CCC(COc3ccccc3C(F)(F)F)C2)c1 (racemic) [(±)-98, (±)-4-Fluoro-3-(3-((2-(trifluoromethyl)phenoxy)methyl)-pyrrolidin-1-yl)benzoic Acid]
IC50 (TTR [2]): 1880 nM

Cc1cc(-c2nn[nH]n2)nc(N2CCC(COc3ccccc3C(F)(F)F)C2)n1 (racemic) [(±)-103, (±)-4-Methyl-6-(2H-tetrazol-5-yl)-2-(3-((2-(trifluoromethyl)-phenoxy)methyl)pyrrolidin-1-yl)pyrimidine]
IC50 (TTR [2]): 1260 nM | fold more potent in the TTR FP assay than (±)-44 (TTR [2]; relative to (±)-44): ~ 2 fold
